These are literature values, as cited in US20240299372A1, “Transdermal Drug Delivery Systems for Administration of a Therapeutically Effective Amount of Apixaban and Other Direct Oral Anticoagulants” (Pike Therapeutics Inc., priority 2023, published 2024).

SMILES strings stand for the structures.

The conditions of series [1]: oral administration; literature refs [1-4].
The conditions of series [2]: for Absolute oral bioavailability: oral administration; for bioavailability: oral, background statement on GI tract exposure.

Turning to `COc1ccc(-n2nc(C(N)=O)c3c2C(=O)N(c2ccc(N4CCCCC4=O)cc2)CC3)cc1` [Apixaban, 1-(4-methoxyphenyl)-7-oxo-6-[4-(2-oxopiperidin-1-yl)phenyl]-4,5-dihydropyrazolo[3,4-c]pyridine-3-carboxamide], in series [1], the “bleeding complications as reason for DOAC discontinuation” value (“bleeding complications as reason” below) is 5.7-10.1%. In addition, in series [2], the Absolute oral bioavailability entry was “approx. 50%”.
On to `COc1ccc(NC(=O)c2ccc(C(=N)N(C)C)cc2)c(C(=O)Nc2ccc(Cl)cn2)c1` [Betrixaban, N-(5-chloropyridin-2-yl)-2-[[4-(N,N-dimethylcarbamimidoyl)benzoyl]amino]-5-methoxybenzamide], for which the Absolute oral bioavailability entry in series [2] is on record as “approx. 34%”.
A word on the bioavailability: it is the share of a dose that reaches the circulation, judged against a reference dose that is usually intravenous. As to `[H]/N=C(/N)c1ccc(NCc2nc3cc(C(=O)N(CCC(=O)O)c4ccccn4)ccc3n2C)cc1` [Dabigatran, 3-[[2-[(4-carbamimidoylanilino)methyl]-1-methylbenzimidazole-5-carbonyl]-pyridin-2-ylamino]propanoic acid], in series [1], the “bleeding complications as reason” value is on record as 3.4-9.7%. In addition, in series [2], the Absolute oral bioavailability is given as 3%-7 and the bioavailability is listed as 6%.
On to `CN1CCc2nc(C(=O)N[C@@H]3C[C@@H](C(=O)N(C)C)CC[C@@H]3NC(=O)C(=O)Nc3ccc(Cl)cn3)sc2C1` [Edoxaban, N′-(5-chloropyridin-2-yl)-N-[(1S,2R, 4S)-4-(dimethylcarbamoyl)-2-[(5-methyl-6,7-dihydro-4H-[1,3]thiazolo[5,4-c]pyridine-2-carbonyl)amino]cyclohexyl]oxamide], for which the Absolute oral bioavailability entry in series [2] is “approx. 62%”.
As for `O=C(NC[C@H]1CN(c2ccc(N3CCOCC3=O)cc2)C(=O)O1)c1ccc(Cl)s1` [Rivaroxaban, 5-chloro-N-[[(5S)-2-oxo-3-[4-(3-oxomorpholin-4-yl)phenyl]-1,3-oxazolidin-5-yl]methyl]thiophene-2-carboxamide], the “bleeding complications as reason” value in series [1] is 16.8-24.5%. Further, in series [2], the Absolute oral bioavailability is 80%-100 and the bioavailability was 60-80%.
